# Measured values from ChEMBL document CHEMBL1201862, “PubChem BioAssay data set” (2004).
# Calls of active or inactive are those of the source.
# Tests used:
# [1] = target: T1, Rac GTPase-activating protein 1 (Homo sapiens, UniProt Q9H0H5); assay: MgcRacGAP GTPase-activating activity inhibitors, confirmation, biochemical, ADP Hunter fluorescence, primary and confirmatory (AID 624330); type: functional
# T1 sequence (Q9H0H5 whole entry): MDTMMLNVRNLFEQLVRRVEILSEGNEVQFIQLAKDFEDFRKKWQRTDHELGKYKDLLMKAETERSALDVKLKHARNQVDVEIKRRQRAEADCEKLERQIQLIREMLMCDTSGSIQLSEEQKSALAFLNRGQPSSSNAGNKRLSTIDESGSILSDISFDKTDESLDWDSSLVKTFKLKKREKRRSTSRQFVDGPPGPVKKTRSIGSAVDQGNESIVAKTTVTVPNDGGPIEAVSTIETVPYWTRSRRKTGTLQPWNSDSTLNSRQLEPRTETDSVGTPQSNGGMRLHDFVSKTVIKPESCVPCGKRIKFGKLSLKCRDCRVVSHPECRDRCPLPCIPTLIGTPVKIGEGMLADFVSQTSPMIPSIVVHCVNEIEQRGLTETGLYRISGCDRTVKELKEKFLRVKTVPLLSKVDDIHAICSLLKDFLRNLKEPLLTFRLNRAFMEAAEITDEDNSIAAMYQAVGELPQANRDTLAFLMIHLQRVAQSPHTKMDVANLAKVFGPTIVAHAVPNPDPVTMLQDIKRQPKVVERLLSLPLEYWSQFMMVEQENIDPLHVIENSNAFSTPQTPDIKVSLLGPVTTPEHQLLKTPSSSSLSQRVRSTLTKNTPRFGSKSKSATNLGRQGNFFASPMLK
# [2] = Luminescence Cell-Based Dose Retest to Confirm Inhibitors of Cancer Stem Cells. [Related pubchem assays (depositor defined):AID2717, AID2721]; type: functional; conditions: Homo sapiens
# [3] = target: Cytochrome P450 3A4 (Homo sapiens, UniProt P08684);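 further: CYP3A4 tested as one member of a cytochrome P450 panel screen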
# Chain of Cytochrome P450 3A4 (P08684 whole entry): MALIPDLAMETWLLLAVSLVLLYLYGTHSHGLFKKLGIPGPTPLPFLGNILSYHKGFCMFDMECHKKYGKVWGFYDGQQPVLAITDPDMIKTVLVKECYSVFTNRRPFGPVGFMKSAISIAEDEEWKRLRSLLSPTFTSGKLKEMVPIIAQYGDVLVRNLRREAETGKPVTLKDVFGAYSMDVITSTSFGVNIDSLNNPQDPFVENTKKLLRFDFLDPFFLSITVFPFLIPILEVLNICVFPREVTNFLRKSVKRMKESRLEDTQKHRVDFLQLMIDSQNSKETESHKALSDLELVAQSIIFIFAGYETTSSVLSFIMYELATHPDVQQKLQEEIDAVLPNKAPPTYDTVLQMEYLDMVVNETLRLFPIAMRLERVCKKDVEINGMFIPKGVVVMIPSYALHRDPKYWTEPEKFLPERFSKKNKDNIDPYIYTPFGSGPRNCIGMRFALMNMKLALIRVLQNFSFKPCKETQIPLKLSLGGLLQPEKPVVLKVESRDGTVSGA
# [4] = cytotoxicity toward NIH3T3 fibroblasts, dose response, counter-screen, cell-based, ATP luminescence, mouse fibroblasts (AID 2010); type: functional;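 further: cells exposed to compound for about 90 hours before reading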
# [5] = inhibitors of intracellular T. cruzi replication, confirmation, NIH3T3 host cells, beta-gal luminescence (AID 2044); type: functional, cell-based;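 further: intracellular parasites grown in NIH/3T3 mouse fibroblasts as host cells; luminescent beta-galactosidase reporter signal from transgenic T. cruzi replicating inside host cells; inhibitors lower the luminescence signal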
# [6] = test system: H4; assay: Luminescence Cell-Based Dose Response HTS to Identify Activators of 5'UTR Stem-Loop Driven Prion Protein mRNA Translation in H4 Neuroglioblastoma Cells. [Related pubchem assays: 1829 (Project Summary), 1814 (Primary HTS)]; type: functional; conditions: Homo sapiens
# [7] = target: Cytochrome P450 2C19 (Homo sapiens, UniProt P33261); assay: Cytochrome panel assay with activity outcomes. Panel member name: p450-cyp2c19 Compounds with AC50 equal or less than 10 uM are considered active; type: functional
# Chain of Cytochrome P450 2C19 (P33261 whole entry): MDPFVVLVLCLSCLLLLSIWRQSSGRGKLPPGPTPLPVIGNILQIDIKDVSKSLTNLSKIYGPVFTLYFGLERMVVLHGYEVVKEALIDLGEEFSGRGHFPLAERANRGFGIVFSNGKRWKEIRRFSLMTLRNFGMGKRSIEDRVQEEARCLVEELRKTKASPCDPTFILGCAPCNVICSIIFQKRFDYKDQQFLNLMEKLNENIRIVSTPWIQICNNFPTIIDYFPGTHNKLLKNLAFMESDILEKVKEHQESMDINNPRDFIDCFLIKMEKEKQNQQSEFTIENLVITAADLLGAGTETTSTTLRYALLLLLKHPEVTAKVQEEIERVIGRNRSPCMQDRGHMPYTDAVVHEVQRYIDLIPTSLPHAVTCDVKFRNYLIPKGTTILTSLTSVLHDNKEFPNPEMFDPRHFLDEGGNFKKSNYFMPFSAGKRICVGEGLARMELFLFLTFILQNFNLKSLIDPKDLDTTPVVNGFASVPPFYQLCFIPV
# [8] = target: T2, Protein skinhead-1 (Caenorhabditis elegans, UniProt P34707); type: functional
# T2 sequence (P34707 whole entry): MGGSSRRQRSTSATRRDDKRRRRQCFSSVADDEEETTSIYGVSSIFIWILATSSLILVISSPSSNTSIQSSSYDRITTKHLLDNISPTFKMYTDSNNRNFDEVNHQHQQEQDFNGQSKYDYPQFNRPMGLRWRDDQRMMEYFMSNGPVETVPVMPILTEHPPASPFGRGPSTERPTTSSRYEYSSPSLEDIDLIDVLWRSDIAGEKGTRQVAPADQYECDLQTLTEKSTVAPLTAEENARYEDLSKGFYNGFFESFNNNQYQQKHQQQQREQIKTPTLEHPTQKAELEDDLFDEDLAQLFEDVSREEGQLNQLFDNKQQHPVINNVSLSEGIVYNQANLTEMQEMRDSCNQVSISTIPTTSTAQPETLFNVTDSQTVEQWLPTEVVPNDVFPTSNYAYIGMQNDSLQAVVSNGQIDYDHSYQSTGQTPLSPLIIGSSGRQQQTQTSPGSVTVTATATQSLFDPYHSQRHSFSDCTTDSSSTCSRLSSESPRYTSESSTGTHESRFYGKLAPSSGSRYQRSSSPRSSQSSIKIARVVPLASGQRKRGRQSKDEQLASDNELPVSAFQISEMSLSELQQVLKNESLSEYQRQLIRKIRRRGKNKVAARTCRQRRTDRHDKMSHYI
structure (smiles),measurement,setting,value
Oc1ccc(/C=C/c2nc3ccccc3nc2O)cc1,IC50,[1],31.5 µM (active)
Cc1cccc(-c2nc(C#N)c(NC3CCCCC3)o2)c1,AC50,[2],2.45 µM (active)
CC[C@@H]1OC(=O)[C@H](C)[C@H](O[C@@H]2C[C@](C)(OC)[C@H](O)[C@H](C)O2)[C@H](C)[C@H](O[C@@H]2O[C@@H](C)C[C@@H](N(C)C)[C@@H]2O)[C@](C)(O)C[C@H](C)C(=O)[C@H](C)[C@H](O)[C@]1(C)O,AC50,[3],12.6 µM (inconclusive)
COc1ccc(CCNC(=O)CN(c2ccccc2OC)S(=O)(=O)c2ccc(C)cc2)cc1,EC50,[4],19.3 µM (active)
same,EC50,[5],4.73 µM (active)
Cc1ccc(C)c(S(=O)(=O)N2CCN(C(=O)CCCc3c[nH]c4ccccc34)CC2)c1,EC50,[4],> 60 µM (not active)
same,EC50,[5],4.01 µM (active)
CCCn1c(C)cc(C(=O)COc2ncnc3sccc23)c1C,EC50,[6],> 120 µM (not active)
CCOC(=O)C1C(=O)C=C(c2ccc(NS(C)(=O)=O)cc2)CC1c1ccco1 (stereo not drawn),AC50,[3],25.1 µM (inconclusive)
c1ccc(OCCCN2CCCC2)cc1,IC50,[1],159 µM (active)
CO[C@@]12C[C@@H](COC(=O)c3cncc(Br)c3)CN(C)[C@H]1Cc1cn(C)c3cccc2c13,AC50,[7]; read-out: AC50,7.94 µM (inconclusive)
COc1ccc(/C=C2\SC(=S)N(CCC(=O)N(CCO)Cc3ccccc3)C2=O)cc1OC,EC50,[4],> 60 µM (not active)
same,EC50,[5],3.32 µM (active)
C=C1C/C(=C\C)C(=O)O[C@@H]2CCN3CC=C(COC(=O)[C@@]1(C)O)[C@H]23,AC50,[7],inconclusive
same,AC50,[3],12.6 µM (inconclusive)
CC(C)c1ccc(/C=C/C(=O)NC2=NCCS2)cc1,AC50,[2],1.99 µM (active)
CCCSc1nc2sc3c(c2c(=O)n1-c1ccc(OC)cc1)CCN(C)C3,EC50,[4],> 30 µM (not active)
same,EC50,[5],0.12 µM (active)
COCCNC(=O)C1CCN(S(=O)(=O)N2CCC3(CC2)OCCO3)CC1,AC50,[7]; read-out: AC50,15.8 µM (inconclusive)
O=[N+]([O-])c1ccc(OCc2cnc(Cl)s2)cc1,IC50,[8],50.3 µM (inactive)
O=C(CNCCO)N1CCc2ccccc21,AC50,[3],1.41 µM (inconclusive)
Cc1c(-c2ccccc2)sc(N)c1C(=O)N1CCOCC1,IC50,[1],41.5 µM (active)
COc1cc(OC)cc(C(=O)N2CCN(Cc3ccc4c(c3)OCO4)CC2)c1,IC50,[1],188 µM (active)
COc1cccc(Nc2ncc3nc(-c4cc(F)cc(F)c4)c(=O)n(C[C@H]4CCCO4)c3n2)c1,AC50,[3],6.31 µM (inconclusive)
O=C(CN1CCN(S(=O)(=O)c2ccc(Br)cc2)CC1)Nc1ccccc1C(=O)c1ccccc1,EC50,[4],> 60 µM (not active)
same,EC50,[5],1.08 µM (active)
Cc1cccc(NC(=O)Nc2ccc3c(c2)OCO3)n1,EC50,[6],9.72 µM (active)
CCCCc1ccc(NC(=O)CSc2nc(=O)n(CCN(CC)CC)c3c2CCC3)cc1,AC50,[2],11.2 µM (active)
Nc1ccc2[nH]cc(CCC(=O)O)c2c1,AC50,[7],inconclusive
CC(=O)NCCNc1ccnc(-c2ccccc2C)n1,AC50,[3],20 µM (inconclusive)
Cc1ccc2cc3cc(C(=O)N4CC(C)CC(C)C4)oc3nc2c1 (stereo not drawn),IC50,[8],> 100 µM (inactive)
COc1cc(CCN2C(=O)c3cccc4cccc(c34)C2=O)c(S(=O)(=O)N2CCCCCC2)cc1OC,EC50,[4],> 30 µM (not active)
same,EC50,[5],1.9 µM (active)
